Experimental data published in patent US6900202B2, “Di-substituted imineheterocyclic compounds” (priority 2000, dated 2005).

molecular target: T1, human α4β2 subtype of nicotinic acetylcholine receptors (Homo sapiens, UniProt P17787+P43681); type: cell-based; settings: response at 100 μM test compound, in comparison with response at 10 μM acetylcholine (100%); oocytes held at −50 mV
T1 construct: expressed in transfected cells; host or cells: Xenopus laevis oocytes injected with hnACh-R α4 and β2 cRNA (pSP64 polyA vector)
Experimental: The agonist effect in human α4β2 subtype of nicotinic acetylcholine receptors are examined by using human nicotinic acetylcholine receptors prepared in oocytes of Xenopus laevis, which is injected with cRNA from the corresponding cloning cDNA of human α4 and β2 subunits of nicotinic acetylcholine receptors, and to measure the expression of the electric response by adding the test compounds to perfusion solution by means of membrane potential holding method.
Agonist Activities at Human α4β2 Subtype of Nicotinic Acetylcholine Receptors
The agonist activities of the compounds of the present invention at human α4β2 subtype of nicotinic acetylcholine receptors was evaluated by the following method, which was modified method described by Papke R. L., Thinschmidt J. S., Moulton B. A., Meyer E. M. & Poirier A., Br. J. Pharmacol., 120, 429-438 (1997).
(1) Preparation of cRNA of Human α4β2 Subtype of Nicotinic Acetylcholine Receptors
The cloning of human nicotinic acetylcholine receptor (hnACh-R) α4 cDNA and hnAC-R β2 cDNA were performed, in accordance with the conventional manners, by synthesizing the each DNA primers corresponding to the sequences of hnACh-R α4 cDNA and hnACh-R β2 cDNA [Monteggia L. M. et al., Gene, 155, 189-193 (1995); and Anand R., & Lindstrom J., Nucl. Acids Res., 18, 4272 (1990)], and obtained hnACh-R α4 cDNA and hnACh-R β2 cDNA by polymerase chain reaction (PCR), respectively. The obtained hnACh-R α4 cDNA and hnACh-R β2 cDNA were inserted to the cRNA expression vector (pSP64 polyA) having SP6 RNA promoter to construct hnACh-R α4/pSP64 polyA and hnACh-R β2/pSP64 polyA, respectively. After cutting from expression vector by restriction enzyme (EcoRI), transcription was performed by affecting SP6 RNA polymerase in the presence of cap analogues to obtain hnACh-R α4 cRNA and hnACh-R β2 cRNA, respectively.
(2) Expression of Human α4β2 Subtype Nicotinic Acetylcholine Receptors in Xenopus Oocytes
Oocytes were purchased from Kitanihonseibustukyohzai Co., Ltd., which were already enucleated from Xenopus laevis, and used in this experiment.
The oocytes were treated with collagenase (Sigma type I; 1 mg/ml) in calcium-free modified Birth's solution (88 mM of NaCl, 1 mM of KCl, 2.4 mM of NaHCO3, 0.82 mM of MgSO4, 15 mM of HEPES, pH 7.6) under gently stirring at the room temperature for 90 minutes, and washed out the enzyme from the tissue. Then, oocytes were separated from ovarian follicle by tweezers, and isolated oocytes were placed in antibiotics containing modified Birth's solution (88 mM of NaCl, 1 mM of KCl, 2.4 mM of NaHCO3, 0.82 mM of MgSO4, 15 mM of HEPES, pH 7.6, and 0.1 v/v % of mixture solution containing of penicillin and streptomycin for incubation; Sigma Co.). Thus treated oocytes were injected with 50 nl of adjusted cRNAs (1.0 mg/ml), that is, each 50 ng of hnACh-R α4 cRNA and hnACh-R β2 cRNA per 1 oocyte by using automatic injector (NANOJECT; DRUMMOND […] CO.), and further incubated for 4-14 days at 19° C. In oocytes, heterogeneous quintuple [(α4)2(β2)3] was composed by translation of injected cRNAs, and ion channel receptors were constructed on cell membrane.
(3) Agonist Activities at Human α4β2 Subtype of Nicotinic Acetylcholine Receptors
The recordings of responses at human α4β2 subtype of nicotinic acetylcholine receptors by means of membrane potential holding method were performed as follow. […] Test compounds were added to the perfusion solution, and recorded the peak strength of induced inward electric current. […]

T1 sequence (P43681 29-627 limits assumed): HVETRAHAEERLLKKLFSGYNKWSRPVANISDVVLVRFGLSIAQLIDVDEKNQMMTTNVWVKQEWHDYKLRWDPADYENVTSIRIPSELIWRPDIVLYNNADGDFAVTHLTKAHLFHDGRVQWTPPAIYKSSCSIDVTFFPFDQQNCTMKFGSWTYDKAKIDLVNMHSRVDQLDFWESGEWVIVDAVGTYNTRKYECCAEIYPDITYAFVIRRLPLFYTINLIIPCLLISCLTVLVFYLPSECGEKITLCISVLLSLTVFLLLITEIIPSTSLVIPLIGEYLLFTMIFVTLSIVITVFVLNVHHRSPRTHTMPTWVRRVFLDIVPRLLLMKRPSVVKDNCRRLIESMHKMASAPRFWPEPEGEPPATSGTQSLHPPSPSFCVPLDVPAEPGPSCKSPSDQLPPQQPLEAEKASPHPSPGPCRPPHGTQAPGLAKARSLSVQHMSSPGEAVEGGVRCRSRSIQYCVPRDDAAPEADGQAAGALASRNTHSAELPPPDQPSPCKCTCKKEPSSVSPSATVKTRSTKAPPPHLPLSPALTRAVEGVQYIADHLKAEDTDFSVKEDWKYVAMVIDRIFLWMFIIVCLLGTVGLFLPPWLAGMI
T1 sequence (P17787 26-502): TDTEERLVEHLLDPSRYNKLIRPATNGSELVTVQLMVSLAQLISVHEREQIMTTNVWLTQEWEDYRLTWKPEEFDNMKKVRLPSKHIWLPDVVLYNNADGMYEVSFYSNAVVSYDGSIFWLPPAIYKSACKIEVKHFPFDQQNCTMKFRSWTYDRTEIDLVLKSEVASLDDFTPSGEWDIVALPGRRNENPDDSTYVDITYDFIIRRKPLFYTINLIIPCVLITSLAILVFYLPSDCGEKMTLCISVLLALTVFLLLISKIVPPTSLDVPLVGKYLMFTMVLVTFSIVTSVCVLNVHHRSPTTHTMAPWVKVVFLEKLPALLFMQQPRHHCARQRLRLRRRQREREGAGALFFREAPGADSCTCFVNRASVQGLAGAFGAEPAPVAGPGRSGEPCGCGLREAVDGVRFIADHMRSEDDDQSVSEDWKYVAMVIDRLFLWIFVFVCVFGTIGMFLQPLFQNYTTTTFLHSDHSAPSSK

Going from `Clc1ccc(C/N=C2\SCCN2Cc2ccc(Cl)nc2)cn1` [Compound 1, 3-(6-chloro-3-pyridyl)methyl-2-[(6-chloro-3-pyridyl)methyl]iminothiazolidine] to `Clc1ccc(C/N=C2\OCCCN2Cc2ccc(Cl)nc2)cn1` [Compound 2, 3-(6-chloro-3-pyridyl)methyl-2-[(6-chloro-3-pyridyl)-methyl]imino-3,4,5,6-tetrahydro-2H-1,3-oxazine], the Agonist effect rises from 6% to 27%.

First: Cn1ccn(Cc2ccc(Cl)nc2)c1=N [Compound 13, 1-(6-chloro-3-pyridyl)methyl-2-imino-3-methyl-2,3-dihydroimidazole]
Second: Clc1ccc(C/N=c2\sccn2Cc2ccc(Cl)nc2)cn1 [Compound 8, 3-(6-chloro-3-pyridyl)methyl-2-[(6-chloro-3-pyridyl)methyl]imino-2,3-dihydrothiazole]
The Agonist effect of the first is lower: 5% for the first, 11% for the second.
